Source: patent US20260055061A1, “HALOPHTHALIMIDE COMPOUNDS AND METHODS OF USE AGAINST TBI, INFLAMMATORY DISORDER, AUTOIMMUNE DISORDER, NEURODEGENERATIVE DISEASE OR VIRAL INFECTION” (The United States of America, as represented by the …, priority 2022, published 2026)

Columns and labels:
CCI-induced TBI mice = test: Controlled cortical impact (CCI) mouse model of TBI: beam walking test; type: in vivo; conditions: for beam walking test average transit time / beam walking test immobility time: 1 week after CCI
Protocol: In vivo model of TBI: Mice were anesthetized with 2.5% tribromoethanol (Avertin: 250 mg/kg; Sigma, St. Louis, MO, USA) and placed in a stereotaxic frame (Kopf Instruments, Tujunga, CA, USA). A 4 mm craniotomy was performed using sterile procedures; the craniotomy point was selected midway between the lambda and bregma sutures and laterally midway between the central suture and the temporalis muscle. The skull fragment was then carefully removed without disruption of the underlying dura. Prior to injury induction, the tip of the impactor was angled and kept perpendicular to the exposed cortical surface. The mouse CCI instrument consisted of an electromagnetic impactor, Impact One (Leica Biosystems Inc., Buffalo Grove, IL, USA) that allows independent alteration of injury severity by controlling contact velocity and the level of cortical deformation. In these experiments, the contact velocity was set at 5.0 m/sec, the dwell time was set at 0.2 s and the deformation depth was set at 2 mm to produce a moderate TBI. The injury site was allowed to dry prior to suturing the wound. During surgery and recovery, the body temperature of the animals was maintained at 36-37° C. by using a heating pad. […] Mice were randomized following CCI to treatment with either of two doses of TFBP (16.25 mg/kg and 32.5 mg/kg, i.p.) or saline, and were dosed at 1 and 24 hr after the injury.
Behavioral assessment for motor functions and coordination: Behavioral tests were performed 1 week and 2 weeks after injury, to assess changes in motor functions and coordination. All tests were performed during the animals' light phase; cages were transported to testing rooms at least 30 min prior to testing.
Beam Walking Test (BWT): A BWT was used to assess CCI-induced deficits in fine motor coordination. Mice have a preference for a darkened enclosed environment, as compared to an open illuminated one. Each animal was placed in darkened goal box for a 2 min habituation and then the trial began from the other (light) end of the beam. The beam was constructed with the following dimensions: 1.2 cm (width)×91 cm (length). The time taken for each animal to traverse the beam to reach the dark goal box and the immobility time spent between the moment when they were initially placed in the beam and when they started walking were documented. Five trials were recorded for each animal before CCI and at 1 and 2 weeks after CCI. The mean times to traverse the beam and the immobility times were calculated, and a plot was generated to evaluate treatment effects; these times were then used for statistical analysis.
In Vivo Model of TBI: TBI studies were conducted in 8-week-old male C57/BL6 mice (25-30 g; n=20), Jackson Laboratory, Bar Harbor, Maine USA. Mice were randomly assigned to four groups prior surgery, CMC+Sham, CMC+TBI, compound 30 (Low dose (LD), 14.78 mg/kg, prepared in 1% CMC in PBS)+TBI, compound 30 (High dose (HD), 29.57 mg/kg)+TBI, and evaluated the effects of compound 30 on TBI. Mice were assessed for gait function and motor coordination, balance function. Animals were subsequently evaluated for cellular changes using histological and immunohistochemistry staining.
Mice were anesthetized with 2.5% tribromoethanol (Avertin: 250 mg/kg; Sigma, St. Louis, MO, USA)) and placed in a mouse stereotaxic frame (Kopf Instruments, Tujunga, CA, USA) and fixed by ear bars and incisor bar. Under sterile procedures, the skin was retracted and a 5-mm square craniectomy was executed over right motor cortex at the posterior corner between the bregma and sagittal sutures. The skull was carefully removed by a drill to avoid damaging the dura underneath. The process of craniectomy proceeded without having the temporalis muscle impaired. The CCI device, Impact One (Leica Biosystems Inc., Buffalo Grove, IL, USA), consists of an electromagnetic impactor that allows alteration of injury severity by controlling contact velocity and the depth of cortical deformation independently. […]

SALL4 = SALL4 (Homo sapiens (Human), UniProt Q9UJQ4); test: SALL4 expression in Tera-1 cells (Western blot); type: cell-based; conditions: Tera-1 cells, 0.1 μM and 1 μM
Protocol: (§1) For Western blot analysis, total proteins were extracted using RIPA buffer (ThermoFisher Scientific, Waltham, MA) containing Halt Protease Inhibitor Cocktail (ThermoFisher Scientific). […] After incubation at 4° C. overnight, the following HRP conjugated secondary antibodies were used: (i) goat anti-rabbit IgG (ThermoFisher Scientific) for ikaros and aiolos, and (ii) goat anti-mouse IgG (ThermoFisher Scientific) for SALL4 and GAPDH. […] Antigen-antibody complexes were detected using enhanced chemiluminescence (Thermo, iBright CL1500).
Specifically, MM1.S cells were obtained from ATCC (Manassas, VA, USA), grown in RPMI media supplemented with 10% FBS, penicillin 100 U/mL, and streptomycin […], and maintained at 37° C. and 5% CO2.
as §1, with “MA, USA)” for “MA)”, “Scientific). Thereafter, the proteins were separated by gel electrophoresis and then transferred to polyvinylidene difluoride (PVDF) membranes (ThermoFisher Scientific), as described previously.” for “Scientific).”, “HRP-conjugated” for “HRP conjugated”, “Ikaros” for “ikaros”, “Aiolos,” for “aiolos,”, “(ThermoFisher Scientific,” for “(Thermo,”

IL-6 = test: LPS model of inflammation in rats: IL-6 in plasma, cortex, hippocampus; type: in vivo; conditions: 29.57 mg/kg i.p.; LPS rat model
Protocol: (§2) Four hours after LPS injection, animals were euthanized, and blood and brain tissue were collected and placed on wet ice. Plasma was quickly separated from blood by centrifuge at 10,000 g. 5 min, 4° C., and brain regions of cortex, hippocampus and the rest of brain were dissected into separate vials on wet ice, then stored at −80° C. Brain tissues were then sonicated in a TRIS based lysis buffer (Mesoscale Discovery) with 3× protease/phosphatase inhibitors (Halt™ Protease and Phosphatase Inhibitor Cocktail, Thermo Fisher Scientific), were then centrifuged at 10,000 g, 10 min, 4° C., and protein concentrations were measured by Bicinchoninic acid assay (BCA, Thermo Fisher Scientific). Rat plasma, cerebral cortical and hippocampal samples were then analyzed by multi-proinflammatory cytokines ELISA (V-PLEX Proinflammatory Panel 2 Rat Kit, Mesoscale Discovery), following the manufacturer's protocol. The processes and dosages of the experiment of drug treatment effects on LPS rat model was made on the basis of our previous studies.

KC/GRO (CXCL1) = test: LPS model of inflammation in rats: KC/GRO (CXCL1); type: in vivo; conditions: 29.57 mg/kg i.p.; LPS rat model
Protocol: as §2

SMILES	beam walking test average transit time (CCI-induced TBI mice; higher dose 32.5 mg/kg i.p.)	beam walking test immobility time (CCI-induced TBI mice; higher dose 32.5 mg/kg i.p.)	beam walking test average transit time (CCI-induced TBI mice; lower dose 16.25 mg/kg i.p.)	beam walking test immobility time (CCI-induced TBI mice; lower dose 16.25 mg/kg i.p.)	SALL4 expression levels (SALL4)	SALL4 expression levels (SALL4; listed as TFBP)	SALL4 expression levels (SALL4; listed as TFNBP)	IL-6 in plasma, cortex, and hippocampus (IL-6)	beam walking test average time (CCI-induced TBI mice; high dose 29.57 mg/kg)	beam walking test, average time and contralateral foot falls (trend) (CCI-induced TBI mice; treated groups 14.78, 29.57 mg/kg)	KC/GRO in brain (KC/GRO (CXCL1))
CC1(C)[C@@H]2CC[C@@]1(C)[C@@H](N1C(=O)c3c(F)c(F)c(F)c(F)c3C1=O)C2 [Compound 14, 4,5,6,7-Tetrafluoro-2-((1R,2S,4R)-1,7,7-trimethylbicyclo[2.2.1]heptan-2-yl) isoindoline-1,3-dione]	prevented the CCI-induced behavioral impairment	prevented the CCI-induced behavioral impairment	but not the average transit time deficit	effective in mitigating the immobility measure	did not statistically affect	did not lower the expression of neosubstrate SALL4					
O=C1c2c(F)c(F)c(F)c(F)c2C(=O)N1C1CC2CCC1C2 (stereo not drawn) [Compound 16, 2-Endo-(bicyclo[2.2.1]heptan-2-yl)-4,5,6,7-tetrafluoroisoindoline-1,3-dione]					did not statistically affect		did not lower the expression of neosubstrate SALL4				
Nc1ccc(F)c2c1C(=S)N(C1CCC(=S)NC1=O)C2=O (stereo not drawn) [Compound 30, 4-amino-7-fluoro-2-(2-oxo-6-thioxopiperidin-3-yl)-3-thioxoisoindolin-1-one]								significantly reduce	reached significant different	clear reducing trends	significantly reduce
